Test results taken from US9783585B2, “Compositions and methods for increasing the expression and signalling of proteins on cell surfaces” (JOHNS HOPKINS UNIVERSITY, priority 2013, dated 2017).

Legend:
[1] = molecular target: T1, Olfr691 (Mus musculus, UniProt Q8VGW5); test: Luciferase reporter assay (CRE Firefly:Renilla), Olfr691 constructs; type: cell-based; settings: 0.1-5 mM isovaleric acid
T1 construct: The other full-length ORs were amplified using primers which added appropriate restriction sites; expressed in transfected cells; host or cells: HEK293T
T1 sequence (Q8VGW5 1-322): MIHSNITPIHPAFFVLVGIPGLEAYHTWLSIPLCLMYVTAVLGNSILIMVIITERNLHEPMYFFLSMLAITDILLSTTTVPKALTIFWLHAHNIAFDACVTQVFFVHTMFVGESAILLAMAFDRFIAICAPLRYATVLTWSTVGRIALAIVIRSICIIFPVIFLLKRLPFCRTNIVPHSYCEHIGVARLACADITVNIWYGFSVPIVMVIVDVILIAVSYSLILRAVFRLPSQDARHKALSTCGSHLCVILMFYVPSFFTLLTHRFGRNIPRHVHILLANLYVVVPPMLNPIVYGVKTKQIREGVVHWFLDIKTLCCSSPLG
Experimental: (§1) Luciferase Assay. The luciferase assay was performed as previously described. Briefly, ORs were transfected into HEK293T cells along with constructs encoding for CREB-dependent luciferase (Firefly) and a constitutively expressed luciferase (Renilla). OR activation leads to a rise in cAMP which drives an increase in Firefly luciferase expression. Firefly activity is normalized to the activity of the Renilla luciferase to control for variation in cell number and transfection efficiency. Data were collected using a FLUOstar Omega automated platereader (BMG LabTech, Cary, N.C.). For some experiments, RTP1S was also transfected.
Statistical Analysis. One-way ANOVA analysis followed by the Student-Newman Keuls test was performed on the luciferase reporter assay to compare the doses of isovaleric acid (0.1-5 mM) or eugenol (100-300 μM) to the non-treated control (0 μM). As each condition was performed in triplicate, the analyses were done with an n=3, and P values≦0.05 were deemed significant. One-way ANOVE followed by Student-Newman Keuls was also used to analyze the surface expression data in FIG. 7. A Student T-Test was performed on the ELISA to assess the significance of the increased protein expression (Control construct vs. Lucy construct for each OR, n=4 for each condition). P values≦0.05 were deemed significant. In both the luciferase reporter assay and the ELISA, the error bars represent the SEM.
To determine whether Lucy-tagged ORs expressed on the cell surface can still respond to their ligands in the absence of RTP1S, and to ensure that the Lucy tag is not altering ligand binding or detection, we assayed for a functional ligand response using a luciferase reporter assay. In this assay, OR-ligand binding leads to an increase in cAMP which drives the expression of a CRE luciferase. An increase in the Firefly (CRE-dependent luciferase): Renilla (constitutively activated luciferase) ratio indicates OR activation. Previously, it was determined that Olfr691 responds to isovaleric acid. […]

[2] = molecular target: T2, mOREG (Mus musculus, UniProt Q920P2); test: Luciferase reporter assay (CRE Firefly:Renilla), mOREG constructs; type: cell-based; settings: Rho-mOREG, Lucy-mOREG and Lucy-Rho-mOREG, no RTP1S, eugenol 100-300 μM, P≦0.05, 300 μM vs 0 μM
T2 construct: The mOR-EG full-length construct, containing N-terminal Flag/Rho tags; expressed in transfected cells; host or cells: HEK293T
T2 sequence (Q920P2 1-313): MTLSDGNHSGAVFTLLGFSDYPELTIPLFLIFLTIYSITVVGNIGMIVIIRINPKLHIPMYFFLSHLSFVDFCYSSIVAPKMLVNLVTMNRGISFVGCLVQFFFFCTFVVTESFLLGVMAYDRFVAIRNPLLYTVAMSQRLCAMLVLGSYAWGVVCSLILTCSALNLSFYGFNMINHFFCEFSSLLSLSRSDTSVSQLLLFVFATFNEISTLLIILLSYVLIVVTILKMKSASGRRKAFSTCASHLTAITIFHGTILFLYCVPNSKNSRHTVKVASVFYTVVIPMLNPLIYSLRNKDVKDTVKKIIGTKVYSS
Experimental: as §1
Statistical Analysis. One-way ANOVA analysis followed by the Student-Newman Keuls test was performed on the luciferase reporter assay to compare the doses of isovaleric acid (0.1-5 mM) or eugenol (100-300 μM) to the non-treated control (0 μM). As each condition was performed in triplicate, the analyses were done with an n=3, and P values≦0.05 were deemed significant. One-way ANOVE followed by Student-Newman Keuls was also used to analyze the surface expression data in FIG. 7. […]
As mOREG is one of the ORs that reach the cell surface under every condition tested, we expressed the OR with and without the Lucy and Rho tags and assessed its response to eugenol.

| Structure (SMILES) | OR activation (Firefly:Renilla ratio) ([1]; Lucy-Rho-Olfr691 with and without RTP, P<0.007 vs 0 mM) | OR activation (Firefly:Renilla ratio) ([1]; Rho-Olfr691 co-expressed with RTP1S, P≦0.002 vs 0 mM) | OR activation (Firefly:Renilla ratio) ([1]; Rho-Olfr691 without RTP1S) | OR activation (Firefly:Renilla ratio) [2] |
| --- | --- | --- | --- | --- |
| CC(C)CC(=O)O [isovaleric acid] | dose-dependent manner | dose-dependent increase | not significantly activated at any concentration |  |
| C=CCc1ccc(O)c(OC)c1 [eugenol] |  |  |  | dose-dependent activation |
